Values after ≈ are worked out from the molar mass of the structure shown. A value given as a limit tells only on which side of the number the result lay.

The assay relates to Staphylococcus aureus, ATCC 25923 (金黄色葡萄球菌,ATCC 25923). The assay can be described thus: MIC by broth microdilution (微量肉汤稀释法). It counts as cell-based. To be noted: ATCC25923, 16 h, MH broth, pH 7.2~7.4, 35℃, 16~20 h. Background: Broth dilution looks for growth in wells or tubes with falling amounts of substance.
Usually MIC stands for the lowest concentration that inhibits growth of the organism. A higher MIC goes with weaker potency. Compound `COc1c(N2CCN3CCCCC3C2)c(F)cc2c(=O)c(C(=O)O)cn(C3CC3)c12` (centres unmarked) [例子1, 7-(八氢-2H-吡啶并[1,2-a]吡嗪基)-1-环丙基-6-氟-1,4-二氢-8-甲氧基-4-氧代-3-喹啉羧酸] returned an MIC of less than 0.3 µg/mL.

As to `COc1c(N2CCN3CCCC3C2)c(F)cc2c(=O)c(C(=O)O)cn(C3CC3)c12` (centres unmarked) [例子2, 7-(六氢吡咯并[1,2-a]吡嗪基)-1-环丙基-6-氟-1,4-二氢-8-甲氧基-4-氧代-3-喹啉羧酸], the MIC is less than 0.1 µg/mL.

`COc1c(N2CCN3CCNCC3C2)c(F)cc2c(=O)c(C(=O)O)cn(C3CC3)c12` (centres unmarked) [例子3, 7-(八氢-2H-吡嗪并[1,2-a]吡嗪基)-1-环丙基-6-氟-1,4-二氢-8-甲氧基-4-氧代-3-喹啉羧酸] gave an MIC of less than 0.3 µg/mL.

Compound `COc1c(N2CCN3CCNC3C2)c(F)cc2c(=O)c(C(=O)O)cn(C3CC3)c12` (centres unmarked) [例子4, 7-(六氢咪唑并[1,2-a]吡嗪基)-1-环丙基-6-氟-1,4-二氢-8-甲氧基-4-氧代-3-喹啉羧酸] displayed an MIC of less than 0.1 µg/mL.

As to `CC1COc2c(N3CCN(C)CC3)c(F)cc3c(=O)c(C(=O)O)cn1c23` (centres unmarked) [氧氟沙星, reference compound], the MIC is 0.3 µg/mL (≈ 0.83 µM).
